# Results published in ChEMBL document CHEMBL3785080, “Individual and combined antiparasitic effect of six plant metabolites against Leishmania amazonensis and Trypanosoma cruzi” (Bioorg Med Chem Lett, 2016).
# Legend:
# Leishmania amazonensis = test: Antileishmanial activity against intracellular amastigote stage of Leishmania amazonensis infected in human THP1 cells […] by microplate based assay; type: functional, organism-based
# [1] = Cytotoxicity against human THP1 cells assessed as cell viability after 72 hrs by MTT assay; type: functional; details: THP-1, 72 h
# [2] = Selectivity index, ratio of CC50 for human THP1 cells to IC50 for Leishmania amazonensis; type: functional, THP-1
# Trypanosoma cruzi = test: Antiprotozoan activity against intracellular amastigote stage of Trypanosoma cruzi Tulahuen infected in human THP1 cells assessed as reduction in parasite viability after 48 hrs by microplate based assay; type: functional, organism-based; details: THP-1, 48 h
# [3] = Selectivity index, ratio of CC50 for human THP1 cells to IC50 for Trypanosoma cruzi Tulahuen; type: functional, THP-1
SMILES,IC50 (Leishmania amazonensis) [µM],IC50 (Trypanosoma cruzi) [µM],CC50 [1] [µM],Ratio CC50/IC50 [2],Ratio CC50/IC50 [3]
CC1(C)C=Cc2c(ccc(C(=O)/C=C/c3ccc(O)cc3)c2O)O1,23,,76.2,3.31,
COc1c(O)ccc2c1C(O)N(C)c1c-2ccc2cc3c(cc12)OCO3 (centres undefined),16.2,,> 125,>7.69,
CC(C)=CCc1c(O)c(CC=C(C)C)c2c(c1O)C(=O)C[C@@H](c1ccc(O)c(O)c1)O2,29.2,,46.3,1.58,
CC(C)=CCc1c(O)ccc(C(=O)/C=C/c2ccc(O)cc2)c1O [ISOBAVACHALCONE],,,36,,

# Now from value to compound, other results behind:
IC50 (Leishmania amazonensis) [µM],IC50 (Trypanosoma cruzi) [µM],SMILES,CC50 [1] [µM],Ratio CC50/IC50 [2],Ratio CC50/IC50 [3]
0.07,,C[C@@H]1[C@H](O)[C@@H](C)/C=C/C=C/C=C/C=C/C=C/C=C/C=C/[C@H](O[C@@H]2O[C@H](C)[C@@H](O)[C@H](N)[C@@H]2O)C[C@@H]2O[C@](O)(C[C@@H](O)C[C@@H](O)[C@H](O)CC[C@@H](O)C[C@@H](O)CC(=O)O[C@H]1C)C[C@H](O)[C@H]2C(=O)O [AMPHOTERICIN B],10,142,
,10.2,O=C(Cn1ccnc1[N+](=O)[O-])NCc1ccccc1 [BENZNIDAZOLE],> 125,,>12
,39.5,COc1c(C=O)c(O)cc2c1C(=O)c1ccccc1C2=O [DAMNACANTHAL],31.5,,0.79
21.8,44.5,CC1(C)C=Cc2c(ccc(C(=O)/C=C/c3ccccc3)c2O)O1 [LONCHOCARPIN],66,3.03,1.48
